Reference: patent publication US9790211B2, “5-amino-quinoline-8-carboxamide derivatives as 5-HT4 receptor agonists” (SUVEN LIFE SCIENCES LIMITED, priority 2013, dated 2017)
Where two headings read alike, the source gives them in different places.

Molecular target: T1, recombinant human 5-HT4 receptor (Homo sapiens, UniProt Q13639)
T1 construct: expressed in transfected cells
Test: Determination of EC50 values for 5-HT4 receptor (CHO cells, pCRE-Luc reporter)
Type: cell-based
Conditions: for EC50: 4 hours incubation
Procedure: Determination of EC50 Values for 5-HT4 Receptor
A stable CHO cell line expressing recombinant human 5-HT4 receptor and pCRE-Luc reporter system was used for cell-based assay. The assay offers a non-radioactive based approach to determine binding of a compound to GPCRs. In this specific assay, the level of intracellular cyclic AMP, which is modulated by activation, or inhibition of the receptor is measured. The recombinant cells harbor luciferase reporter gene under the control of cAMP response element.
The above cells were grown in 96 well clear bottom white plates in Hams F12 medium containing 10% fetal bovine serum (FBS). Prior to the addition of compounds or standard agonist, cells were serum starved overnight. Increasing concentrations of test compounds were added in OptiMEM medium to the cells. The incubation was continued at 37° C. in CO2 incubator for 4 hours. Medium was removed and cells were washed with phosphate buffered saline. The cells were lysed and luciferase activity was measured in a Luminometer. Luminescence units were plotted against the compound concentrations using Graphpad software.

[1] = CHO cells, human 5-HT4 receptor, luciferase reporter
[2] = CHO, CHO cells, human 5-HT4 receptor, luciferase reporter, read-out: Emax

T1 sequence (Q13639 whole entry): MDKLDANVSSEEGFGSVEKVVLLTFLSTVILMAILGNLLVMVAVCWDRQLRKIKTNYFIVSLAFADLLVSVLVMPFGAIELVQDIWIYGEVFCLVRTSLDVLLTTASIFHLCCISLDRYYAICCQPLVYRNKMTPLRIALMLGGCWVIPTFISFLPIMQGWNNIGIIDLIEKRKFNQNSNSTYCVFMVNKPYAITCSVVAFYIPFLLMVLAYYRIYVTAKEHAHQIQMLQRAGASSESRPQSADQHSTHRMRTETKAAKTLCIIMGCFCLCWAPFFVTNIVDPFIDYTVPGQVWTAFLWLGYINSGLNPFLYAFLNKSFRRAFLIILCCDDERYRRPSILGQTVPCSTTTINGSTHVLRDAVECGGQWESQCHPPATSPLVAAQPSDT

Row | Emax [2] [%] | Compound | Emax [1] [%] | EC50 [1] [nM] | Emax (CHO) [%]
1 | – | 5-Amino-6-chloro-N-{[3-(2-fluoro-2-methyl propyl)-3-azabicyclo[3.1.0]hex-6-yl]methyl} quinoline-8-carboxamide [Example 47] | 79 | 1.6 | –
2 | 54 | Nc1c(Cl)cc(C(=O)NCC2[C@H]3CN(CC4CCOCC4)C[C@@H]23)c2ncccc12 (mixture of isomers) [Example 15, 5-Amino-6-chloro-N-{[3-(tetrahydro-2H-pyran-4-ylmethyl)-3-azabicyclo[3.1.0]hex-6-yl]methyl}quinoline-8-carboxamide (exo/endo mixture)] | – | 0.5 | –
3 | 79 | Nc1c(Cl)cc(C(=O)NC2CCN(CC3CCOCC3)CC2)c2ncccc12 [Example 3, 5-Amino-6-chloro-N-[1-(tetrahydro-2H-pyran-4-ylmethyl)-4-piperidinyl]quinoline-8-carboxamide] | – | 2.5 | –
4 | – | Nc1c(Cl)cc(C(=O)NCC2CCN(C3CCOCC3)CC2)c2ncccc12 [Example 6, 5-Amino-6-chloro-N-{[1-(tetrahydro-2H-pyran-4-yl)-4-piperidinyl]methyl}quinoline-8-carboxamide L(+)-tartarate] | – | 0.1 | 56
5 | 71 | Nc1c(Cl)cc(C(=O)NCC2C3CN(CC4CCOC4)CC23)c2ncccc12 (centres unmarked) [Example 7, 5-Amino-6-chloro-N-{[3-(tetrahydro-3-furanylmethyl)-3-azabicyclo[3.1.0]hex-6-yl]methyl}quinoline-8-carboxamide] | – | 0.57 | –
6 | – | CC(C)CN1CC2C(CNC(=O)c3cc(Cl)c(N)c4cccnc34)C2C1 (stereo not drawn) [Example 8, 5-Amino-6-chloro-N-{[3-isobutyl-3-azabicyclo[3.1.0]hex-6-yl]methyl}quinoline-8-carboxamide L(+)-tartarate] | – | 0.7 | 87
7 | – | Nc1c(Cl)cc(C(=O)NCC2C3CN(CC4CC4)CC23)c2ncccc12 (stereo not drawn) [Example 9, 5-Amino-6-chloro-N-{[3-cyclopropylmethyl-3-azabicyclo[3.1.0]hex-6-yl]methyl} quinoline-8-carboxamide L(+)-tartarate] | – | 0.8 | 87
8 | – | CC(C)N1CC2C(CNC(=O)c3cc(Cl)c(N)c4cccnc34)C2C1 (stereo not drawn) [Example 10, 5-Amino-6-chloro-N-{[3-isopropyl-3-azabicyclo[3.1.0]hex-6-yl]methyl}quinoline-8-carboxamide L(+)-tartarate] | – | 1.5 | 83
9 | – | Nc1c(F)cc(C(=O)NCC2CCN(CC3CCOCC3)CC2)c2ncccc12 [Example 11, 5-Amino-6-fluoro-N-{[1-(tetrahydro-2H-pyran-4-ylmethyl)-4-piperidinyl]methyl} quinoline-8-carboxamide L(+)-tartarate] | – | 0.3 | 77
10 | – | Nc1c(Cl)cc(C(=O)NCC2CCN(CC3CCOCC3)C2)c2ncccc12 (stereo not drawn) [Example 12, 5-Amino-6-chloro-N-{[1-(tetrahydro-2H-pyran-4-ylmethyl)-3-pyrrolidinyl]methyl} quinoline-8-carboxamide L(+)-tartarate] | – | 0.2 | 83
11 | – | Nc1c(Br)cc(C(=O)NCC2CCN(CC3CCOCC3)CC2)c2ncccc12 [Example 16, 5-Amino-6-bromo-N-{[1-(tetrahydro-2H-pyran-4-ylmethyl)-4-piperidinyl]methyl} quinoline-8-carboxamide L(+)-tartarate] | – | 0.08 | 62
12 | – | Nc1c(Br)cc(C(=O)NCC2C3CN(CC4CCOCC4)CC23)c2ncccc12 (stereo not drawn) [Example 17, 5-Amino-6-bromo-N-{[3-(tetrahydro-2H-pyran-4-ylmethyl)-3-azabicyclo[3.1.0]hex-6-yl]methyl}quinoline-8-carboxamide L(+)-tartarate] | – | 0.8 | 72
13 | – | Nc1c(Cl)cc(C(=O)NCC2(F)CCN(CC3CCOCC3)CC2)c2ncccc12 [Example 20, 5-Amino-6-chloro-N-{[4-fluoro-1-(tetrahydro-2H-pyran-4-ylmethyl)-4-piperidinyl]methyl}quinoline-8-carboxamide L(+)-tartarate] | – | 1.1 | 58
14 | – | Nc1c(Cl)cc(C(=O)NCC2(O)CCN(CC3CCOCC3)CC2)c2ncccc12 [Example 22, 5-Amino-6-chloro-N-{[4-hydroxy-1-(tetrahydro-2H-pyran-4-ylmethyl)-4-piperidinyl]methyl}quinoline-8-carboxamide L(+)-tartarate] | – | 0.2 | 86
15 | 81 | Nc1c(Cl)cc(C(=O)NC2CCN(CC3(O)CCOCC3)CC2)c2ncccc12 [Example 24, 5-Amino-6-chloro-N-[1-(4-hydroxytetrahydro-2H-pyran-4-ylmethyl)-4-piperidinyl] quinoline-8-carboxamide] | – | 4.1 | –
16 | – | Nc1c(Cl)cc(C(=O)NCC2C3CN(CC4(O)CCOCC4)CC23)c2ncccc12 (stereo not drawn) [Example 25, 5-Amino-6-chloro-N-{[3-(4-hydroxytetrahydro-2H-pyran-4-ylmethyl)-3-azabicyclo[3.1.0]hex-6-yl]methyl}quinoline-8-carboxamideL(+)-tartarate] | – | 0.6 | 93
17 | – | Nc1c(F)cc(C(=O)NCC2CCN(CC3(O)CCOCC3)CC2)c2ncccc12 [Example 28] | – | 0.1 | 66
18 | – | Nc1c(Cl)cc(C(=O)NCC2(O)CCN(CC3(O)CCOCC3)CC2)c2ncccc12 [Example 29, 5-Amino-6-chloro-N-{[4-hydroxy-1-(4-hydroxytetrahydro-2H-pyran-4-ylmethyl)-4-piperidinyl]methyl}quinoline-8-carboxamide L(+)-tartarate] | – | 0.1 | 84
19 | – | Nc1c(Cl)cc(C(=O)NCC2CCN(CC3(F)CCOCC3)CC2)c2ncccc12 [Example 30, 5-Amino-6-chloro-N-{[1-(4-fluorotetrahydro-2-pyran-4-ylmethyl)-4-piperidinyl]methyl}quinoline-8-carboxamide L(+)tartarate] | – | 0.1 | 65
20 | 60 | COC(=O)C(C)(C)CN1CCC(CNC(=O)c2cc(Cl)c(N)c3cccnc23)CC1 [Example 31, 5-Amino-6-chloro-N-{[1-(2-methoxycarbonyl-2-methylpropan-1-yl)-4-piperidinyl]methyl}quinoline-8-carboxamide] | – | 0.3 | –
21 | – | CC(C)(CN1CCC(CNC(=O)c2cc(Cl)c(N)c3cccnc23)CC1)C(=O)O [Example 32, 5-Amino-6-chloro-N-{[1-(2,2-dimethylproponic acid-3-yl)-4-piperidinyl]methyl}quinoline-8-carboxamide L(+)-tartarate] | – | 1.2 | 60
22 | – | CC(C)(O)CN1CCC(CNC(=O)c2cc(Cl)c(N)c3cccnc23)CC1 [Example 35, 5-Amino-6-chloro-N-{[1-(2-hydroxy-2-methylpropyl)-4-piperidinyl]methyl}quinoline-8-carboxamide L(+)-tartarate] | – | 0.1 | 48
23 | – | CC(C)(O)CN1CCC(F)(CNC(=O)c2cc(Cl)c(N)c3cccnc23)CC1.Cl [Example 38, 5-Amino-6-chloro-N-{[4-fluoro-1-(2-hydroxy-2-methylpropyl)-4-piperidinyl]methyl} quinoline-8-carboxamide hydrochloride] | 54 | 1.3 | –
24 | – | CC(C)(O)CN1CC2C(CNC(=O)c3cc(Cl)c(N)c4cccnc34)C2C1 (stereo not drawn) [Example 40, 5-Amino-6-chloro-N-{(3-(2-hydroxy-2-methylpropyl)-3-azabicyclo[3.1.0]hex-6-yl]methyl} quinoline-8-carboxamide L(+)-tartarate] | – | 3.9 | 63
25 | – | CC(C)(O)CN1CCC(CNC(=O)c2cc(F)c(N)c3cccnc23)CC1 [Example 41, 5-Amino-6-fluoro-N-{[1-(2-hydroxy-2-methylpropyl)-4-piperidinyl]methyl}quinoline-8-carboxamide L(+)-tartarate] | – | 0.2 | 64
26 | – | CC(C)(O)CN1CCC(CNC(=O)c2cc(Br)c(N)c3cccnc23)CC1 [Example 44, 5-Amino-6-bromo-N-{[1-(2-hydroxy-2-methylpropyl)-4-piperidinyl]methyl} quinoline-8-carboxamide L(+)-tartarate] | – | 0.3 | 52
27 | – | CC(C)(O)CN1CCC(F)(CNC(=O)c2cc(Br)c(N)c3cccnc23)CC1 [Example 45, 5-Amino-6-bromo-N-{[4-fluoro-1-(2-hydroxy-2-methylpropyl)-4-piperidinyl]methyl} quinoline-8-carboxamide L(+)-tartarate] | – | 11.8 | 89

Row | Compound | Emax [2] [%] | Emax [1] [%] | EC50 [1] [nM] | Emax (CHO) [%]
28 | Nc1c(Cl)cc(C(=O)NCC2CCN(CC3(O)CCOCC3)CC2)c2ncccc12 [Example 26, 5-Amino-6-chloro-N-{[1-(4-hydroxytetrahydro-2H-pyran-4-ylmethyl)-4-piperidinyl]methyl}quinoline-8-carboxamide] | 65 | – | – | –
29 | CC(C)(O)CN1CCC(F)(CNC(=O)c2cc(Cl)c(N)c3cccnc23)CC1 [Example 36, 5-Amino-6-chloro-N-{[4-fluoro-1-(2-hydroxy-2-methylpropyl)-4-piperidinyl]methyl} quinoline-8-carboxamide] | 74 | – | 2.3 | –
30 | CC(C)(O)CN1CCC(F)(CNC(=O)c2cc(F)c(N)c3cccnc23)CC1 [Example 42, 5-Amino-6-fluoro-N-{[4-fluoro-1-(2-hydroxy-2-methylpropyl)-4-piperidinyl]methyl} quinoline-8-carboxamide] | 74 | – | 4 | –
